Experimental data as given in patent publication US20200216417A1, “INHIBITORS OF FIBROBLAST ACTIVATION PROTEIN” (Praxis Biotech LLC, priority 2019, published 2020).

Columns and labels:
[1] = biological target: T1, recombinant human DPP9 (rhDPP9) (Homo sapiens, UniProt Q86TI2); assay: DPP9 inhibition assay, 10 ng rhDPP9, Tris-HCl/BSA buffer; assay type: biochemical; conditions: Table 3B
T1 construct: purchased R&S system / R&D systems (both sic) 5419-SE

[2] = biological target: T2, recombinant human FAPα (rhFAPα) (Homo sapiens, UniProt Q12884); assay: FAPα enzymatic exopeptidase (dipeptidase) activity assay, Z-Gly-Pro-AMC; assay type: biochemical; conditions: for IC50: read-out: rhFAP IC50; for inhibition at 1 µM / rhFAPα (% exo inh @ 1 μM): exopeptidase inhibition at 1 μM test compound; for inhibition at 1 µM: read-out: rhFAPα % exo inh @ 1 μM
T2 construct: purchased R&S system (so in the source)
T2 sequence (Q12884 1-760): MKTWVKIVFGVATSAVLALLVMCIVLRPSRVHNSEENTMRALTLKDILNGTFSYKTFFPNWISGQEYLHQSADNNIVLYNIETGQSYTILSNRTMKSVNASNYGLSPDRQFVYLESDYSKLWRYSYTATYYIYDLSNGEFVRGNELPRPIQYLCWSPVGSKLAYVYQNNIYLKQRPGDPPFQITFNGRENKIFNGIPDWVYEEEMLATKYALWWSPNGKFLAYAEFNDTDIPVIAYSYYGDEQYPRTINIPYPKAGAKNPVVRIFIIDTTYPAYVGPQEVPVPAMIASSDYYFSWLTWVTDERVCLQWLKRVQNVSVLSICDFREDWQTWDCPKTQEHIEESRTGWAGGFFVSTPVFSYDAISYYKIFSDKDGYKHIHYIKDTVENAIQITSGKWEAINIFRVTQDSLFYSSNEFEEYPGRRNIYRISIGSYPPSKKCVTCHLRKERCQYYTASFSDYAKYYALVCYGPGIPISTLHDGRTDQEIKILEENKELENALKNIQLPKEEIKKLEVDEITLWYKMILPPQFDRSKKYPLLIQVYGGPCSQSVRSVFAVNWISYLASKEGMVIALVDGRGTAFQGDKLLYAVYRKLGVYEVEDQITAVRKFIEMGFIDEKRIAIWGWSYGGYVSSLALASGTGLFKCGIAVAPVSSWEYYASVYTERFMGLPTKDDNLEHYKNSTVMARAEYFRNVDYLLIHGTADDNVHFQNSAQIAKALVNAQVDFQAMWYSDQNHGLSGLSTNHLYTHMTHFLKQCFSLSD

[3] = tested on: human AML cell line MV4-11; assay: Cytotoxicity assay in human leukemia cell lines (Cell-Titer Glo); conditions: MV4-11, 48 h, read-out: MV4-11 viability IC50, μM
[4] = biological target: T3, recombinant human PREP (rhPREP) (Homo sapiens, UniProt P48147); assay: PREP enzymatic activity assay, Z-Gly-Pro-AMC; assay type: biochemical; conditions: Table 3B
T3 sequence (P48147 1-710): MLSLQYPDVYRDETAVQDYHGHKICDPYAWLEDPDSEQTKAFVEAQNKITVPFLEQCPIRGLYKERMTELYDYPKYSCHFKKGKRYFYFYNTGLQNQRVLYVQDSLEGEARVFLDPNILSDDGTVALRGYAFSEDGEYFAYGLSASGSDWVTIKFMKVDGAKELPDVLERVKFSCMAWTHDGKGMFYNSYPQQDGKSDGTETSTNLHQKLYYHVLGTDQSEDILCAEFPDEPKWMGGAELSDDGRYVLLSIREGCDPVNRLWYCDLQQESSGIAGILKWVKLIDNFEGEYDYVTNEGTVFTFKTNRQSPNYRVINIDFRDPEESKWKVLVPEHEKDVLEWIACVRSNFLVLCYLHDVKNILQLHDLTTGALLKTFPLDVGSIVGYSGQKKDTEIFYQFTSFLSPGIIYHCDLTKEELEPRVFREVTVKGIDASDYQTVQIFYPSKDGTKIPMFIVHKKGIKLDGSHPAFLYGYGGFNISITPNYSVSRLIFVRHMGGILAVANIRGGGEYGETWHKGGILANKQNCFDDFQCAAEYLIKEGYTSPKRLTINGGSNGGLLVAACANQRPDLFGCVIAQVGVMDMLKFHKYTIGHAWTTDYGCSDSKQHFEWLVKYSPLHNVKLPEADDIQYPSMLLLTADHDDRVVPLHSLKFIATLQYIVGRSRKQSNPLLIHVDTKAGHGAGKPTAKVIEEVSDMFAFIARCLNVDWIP

[5] = biological target: T4, recombinant human DPPIV (rhDPPIV) (Homo sapiens, UniProt P27487); assay: DPPIV enzymatic activity assay, H-Gly-Pro-pNA; assay type: biochemical; conditions: Table 3B
T4 construct: purchased R&S system (so in the source)
T4 sequence (P27487 whole entry): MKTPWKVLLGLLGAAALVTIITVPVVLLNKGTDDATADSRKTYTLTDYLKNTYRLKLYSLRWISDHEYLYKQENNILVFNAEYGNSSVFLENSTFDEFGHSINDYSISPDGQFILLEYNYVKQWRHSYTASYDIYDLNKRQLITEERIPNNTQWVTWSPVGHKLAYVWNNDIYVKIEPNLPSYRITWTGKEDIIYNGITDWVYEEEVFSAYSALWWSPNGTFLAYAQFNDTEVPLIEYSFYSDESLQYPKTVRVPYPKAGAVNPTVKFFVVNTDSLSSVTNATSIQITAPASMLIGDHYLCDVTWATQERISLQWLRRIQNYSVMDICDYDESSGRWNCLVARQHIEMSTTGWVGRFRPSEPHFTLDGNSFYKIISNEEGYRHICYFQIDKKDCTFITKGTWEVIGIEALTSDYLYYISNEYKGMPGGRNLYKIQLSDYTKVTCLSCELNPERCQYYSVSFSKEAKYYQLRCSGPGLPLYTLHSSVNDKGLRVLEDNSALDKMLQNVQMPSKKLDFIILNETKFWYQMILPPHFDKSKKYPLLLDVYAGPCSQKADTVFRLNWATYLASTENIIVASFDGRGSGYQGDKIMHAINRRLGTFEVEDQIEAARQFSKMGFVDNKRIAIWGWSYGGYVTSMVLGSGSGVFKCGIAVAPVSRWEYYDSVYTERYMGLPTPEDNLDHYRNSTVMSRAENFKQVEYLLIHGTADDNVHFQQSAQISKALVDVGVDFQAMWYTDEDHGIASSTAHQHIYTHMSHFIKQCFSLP

DPPIV = biological target: T5, DPPIV (Mus musculus, UniProt P28843); assay: DPPIV enzymatic activity in mouse plasma (H-Gly-Pro-AMC); assay type: biochemical, C57BL/6 mouse; conditions: H-Gly-Pro-AMC substrate
T5 construct: from tissue; host or cells: C57BL/6 mouse plasma (EDTA)
T5 sequence (P28843 37-760 limits assumed): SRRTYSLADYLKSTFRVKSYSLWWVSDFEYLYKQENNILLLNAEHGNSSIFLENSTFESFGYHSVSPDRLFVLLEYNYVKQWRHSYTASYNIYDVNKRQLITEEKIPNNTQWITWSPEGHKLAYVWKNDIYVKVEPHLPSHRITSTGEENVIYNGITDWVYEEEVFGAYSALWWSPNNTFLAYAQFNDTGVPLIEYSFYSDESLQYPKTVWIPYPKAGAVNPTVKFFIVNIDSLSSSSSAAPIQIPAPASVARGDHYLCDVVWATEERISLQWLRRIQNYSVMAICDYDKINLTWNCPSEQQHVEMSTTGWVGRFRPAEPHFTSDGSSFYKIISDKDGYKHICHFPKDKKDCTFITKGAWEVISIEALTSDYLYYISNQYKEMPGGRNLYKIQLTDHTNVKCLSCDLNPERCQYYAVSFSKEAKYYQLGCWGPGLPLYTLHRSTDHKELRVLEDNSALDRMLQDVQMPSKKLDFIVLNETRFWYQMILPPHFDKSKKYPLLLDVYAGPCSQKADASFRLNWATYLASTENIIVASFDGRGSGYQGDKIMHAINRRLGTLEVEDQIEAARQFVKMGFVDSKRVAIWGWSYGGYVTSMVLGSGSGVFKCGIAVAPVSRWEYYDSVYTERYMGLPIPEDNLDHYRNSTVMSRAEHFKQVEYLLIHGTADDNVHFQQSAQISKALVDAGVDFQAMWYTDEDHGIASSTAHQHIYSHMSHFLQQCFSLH
Experimental: Approximately 500 μL of whole blood from one C57BL/6 mouse was harvested into BD Microtainer® tubes (K2) EDTA (#365974, Becton Dickinson and Co.) via terminal cardiac puncture. The blood sample was immediately centrifuged at approximately 9000 g at 4° C. for 5 minutes. Plasma was separated and stored at −80° C. in aliquots of 300 μL. To assay baseline DPPIV enzymatic exopeptidase activity, 5 μL of thawed, mouse plasma was diluted (1:5) in buffer (100 mM Tris-HCl, 400 mM NaCl, 50 mM salicylic acid, 1 mM EDTA, pH 7.5) and mixed with 35 μL of the same buffer before being pre-incubated with different concentrations of 10 μL of test compounds or DMSO vehicle for 15 minutes at 37° C. in 96-well black plates (Nunc, #237108). After pre-incubation, 50 μL of 200 μM dipeptide substrate H-Gly-Pro-AMC (Bachem, # L-1225) was added to the mixture. The assay was performed for 1 hour at 37° C. 7-Amino-4-Methylcoumarin (AMC) release was detected measuring fluorescence at an excitation wavelength of 360 nm and an emission wavelength of 460 nm using a Multifunction Microplate Reader (Synergy 4, Biotek). All measurements were carried out at least in duplicate.

[6] = upon standing in pH 7.8; cyclization (Narra et al., 2007); cited from earlier work

T1 sequence (Q86TI2 whole entry): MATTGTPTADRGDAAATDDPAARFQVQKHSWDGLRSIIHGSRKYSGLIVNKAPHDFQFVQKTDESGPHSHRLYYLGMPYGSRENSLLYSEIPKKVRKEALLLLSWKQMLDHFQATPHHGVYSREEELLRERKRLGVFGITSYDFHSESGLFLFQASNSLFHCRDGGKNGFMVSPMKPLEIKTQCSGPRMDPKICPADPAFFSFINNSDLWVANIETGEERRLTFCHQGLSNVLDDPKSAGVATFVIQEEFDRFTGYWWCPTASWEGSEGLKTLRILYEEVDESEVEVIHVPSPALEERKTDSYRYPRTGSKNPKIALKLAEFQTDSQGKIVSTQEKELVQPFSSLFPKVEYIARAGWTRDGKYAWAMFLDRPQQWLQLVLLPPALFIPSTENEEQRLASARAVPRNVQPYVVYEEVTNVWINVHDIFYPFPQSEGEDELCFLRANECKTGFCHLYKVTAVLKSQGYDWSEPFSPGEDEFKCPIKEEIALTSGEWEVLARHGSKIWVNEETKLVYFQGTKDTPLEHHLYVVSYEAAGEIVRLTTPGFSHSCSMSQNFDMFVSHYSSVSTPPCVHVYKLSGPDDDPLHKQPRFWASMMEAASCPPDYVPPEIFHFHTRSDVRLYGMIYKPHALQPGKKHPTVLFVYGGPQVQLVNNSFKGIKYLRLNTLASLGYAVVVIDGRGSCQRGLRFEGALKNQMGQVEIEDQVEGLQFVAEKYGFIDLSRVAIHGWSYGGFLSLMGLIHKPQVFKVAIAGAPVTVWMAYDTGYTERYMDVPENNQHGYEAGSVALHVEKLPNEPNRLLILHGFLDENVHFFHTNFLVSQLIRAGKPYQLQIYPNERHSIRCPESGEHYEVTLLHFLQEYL

| SMILES | IC50 [1] | IC50 ([2]; Table 3B) | inhibition at 1 µM ([2]; Table 3B) | IC50 [3] | IC50 [4] | IC50 [5] | rhFAPα (% exo inh @ 1 μM) ([2]; Table 2) | rhFAPα (% exo inh @ 1 μM) ([2]; Table 3B) | IC50 (DPPIV) | stability of protease inhibitory activity [6] |
| --- | --- | --- | --- | --- | --- | --- | --- | --- | --- | --- |
| N#C[C@@H]1CC(F)(F)CN1C(=O)CNC(=O)c1ccnc2ccc(/C=C/c3ccc(C(F)(F)F)nc3)cc12 [Compound 46] | < 1 µM | < 1 µM | > 50% | < 3 µM | > 10 µM | > 10 µM |  |  |  |  |
| COc1ccc(/C=C/c2ccc3nccc(C(=O)NCC(=O)N4CC(F)(F)C[C@H]4C#N)c3c2)cc1 [Compound 47] | < 1 µM | < 1 µM | > 50% | 3 to 10 µM | > 10 µM | > 10 µM |  |  |  |  |
| N#C[C@@H]1CC(F)(F)CN1C(=O)CNC(=O)c1ccnc2ccc(/C=C/c3ccc(O)nc3)cc12 [Compound 139] | < 1 µM | < 1 µM | > 50% | > 10 µM | > 10 µM | > 10 µM |  |  |  |  |
| Cc1cc(/C=C/c2ccc3nccc(C(=O)NCC(=O)N4CC(F)(F)C[C@H]4C#N)c3c2)ccn1 [Compound 192] | < 1 µM | < 1 µM | > 50% | < 3 µM | > 10 µM | 1 to 10 µM |  |  |  |  |
| COc1cc(/C=C/c2ccc3nccc(C(=O)NCC(=O)N4CC(F)(F)C[C@H]4C#N)c3c2)ccn1 [Compound 193] | < 1 µM | < 1 µM | > 50% | < 3 µM | > 10 µM | > 10 µM |  |  |  |  |
| N#C[C@@H]1CC(F)(F)CN1C(=O)CNC(=O)c1ccnc2ccc(/C=C/c3ccnc(C(F)(F)F)c3)cc12 [Compound 194] | < 1 µM | < 1 µM | > 50% | < 3 µM | > 10 µM | 1 to 10 µM |  |  |  |  |
| N#CC1CC(F)(F)CN1C(=O)CNC(=O)c1ccnc2ccccc12 (centres unmarked) [Ref. Comp., reference compound] |  |  |  |  |  |  | +++ (+++ refers to >50% inhibition at 1 μM test compound) | +++ (+++ refers to >50% inhibition at 1 μM test compound) | < 10 µM |  |
| CC(C)[C@H](N)C(=O)N1CCC[C@H]1B(O)O [Val-boroPro, reference compound] |  |  |  | < 3 µM |  |  |  |  |  | rapidly loses protease inhibitory activity |
